Where “and” joins values, the source holds several entries; their conditions need not be identical. Equal values may be shown once. Entries after “also recorded” stand apart in the source; their conditions may differ.

Experiment [1] is described as follows: Example 8: case of hangover therapy, test subject A, capsule of aminolevulinic acid. Particulars: terrible hangover, one capsule comprising 100 mg. It counts as in vivo, human. How it is done:
Test subject A who consumed Japanese sake similarly to Example 7 without ingesting any capsules developed a terrible hangover condition. Test subject A ingested one capsule comprising 100 mg of aminolevulinic acid. As a result, symptoms started to recover after 30 minutes had passed since administration, and they had completely recovered after 1.5 hours.

Experiment [2] can be described thus: Example 9: questionnaire total score of ten hangover symptoms with and without ALAs ingestion, fifteen test subjects. It counts as in vivo, human. Particulars: for Total score After alcohol consumption (same day) / Total score Morning after alcohol consumption: ALAs ingested (10-150 mg total, differs per subject), sum of ten hangover symptom items each scored 0-4, one line per test subject 1-15. How it is done:
The following tests were performed to more quantitatively measure that ALAs are effective for the prevention or therapy of a hangover.
In this experiment, aminolevulinic acid phosphate salt was employed as ALAs.
Each test subject, consumed alcohol in the evening for a total of two times in order to evaluate hangover symptoms in regards to each of (1) when ALAs was ingested and (2) when ALAs was not ingested. In the experiment with ALAs ingestion and the experiment without ALAs ingestion, the order for which of the experiments was performed first and the other of the experiments was performed, later was randomly selected for each test subject. Each experiment was performed with at least a few days apart.
Total amount of alcohol consumption varies by test subject. This is because a moderate amount for each test subject was consumed. Moreover, alcohol consumption was made so that the total amount of the second alcohol consumption was the same as the total amount of the first alcohol consumption (note that as exceptions, (1) the total amount of alcohol consumption when ALAs was ingested and (2) the total amount of alcohol consumption when ALAs was not ingested are not the same for test subjects 1, 2, and 12 in Table 5 below). In Table 5 below, the “total amount of alcohol consumption” indicates a value converted into the total amount of alcohol contained in beer or Japanese sake etc. consumed (in other words, in the case of a 500 ml canned beer, if the alcohol percentage is 5%, it is calculated as […]).
Moreover, for each test subject, the timing of ALAs ingestion (1) when ALAs was ingested was “at the start of alcohol consumption” and/or “after the end of alcohol consumption” as shown in Table 5 below. The ingestion of ALAs (aminolevulinic acid phosphate salt) was performed by selecting at least one from below:
(A) the capsule of Example 1 (contains 50 mg of ALAs),
(B) the capsule of Example 3 (contains 10 mg of ALAs),
(C) “Hanamitsu Drink™” (contains 5 or 10 mg of ALAs, a product generally marketed by the present applicants) for each test subject, ingested in the range of 10 mg-150 mg total.
(A) The body condition “after alcohol consumption on the day of alcohol consumption” (“after alcohol consumption (same day)” in Table 5) and (B) the body condition on “the morning after the day of alcohol consumption” (“morning after alcohol consumption” in Table 5) were quantified with the following scores. In other words, a five-step evaluation (0: no indication, 1: mild, 2: moderate, 3: severe, and 4: profound) was performed for each test subject in regards to the following ten items (a-j) which are hangover symptoms. Then, evaluation values (0-4) for each item were summed for each test subject. The results are described in Table 5 as the “total score” showing hangover symptoms.

Where [3] appears, read: phosphate salt, 10 mg ALAs with 60 mL alcohol.
Where [4] appears, read: phosphate salt, 20 mg ALAs with 70 mL alcohol.
[5] abbreviates: phosphate salt, 50 mg ALAs with 14 mL alcohol.
[6] abbreviates: phosphate salt, 50 mg ALAs with 25 mL alcohol.
The mark [7] stands for this setting: phosphate salt, 50 mg ALAs with 45 mL alcohol.
Where [8] appears, read: phosphate salt, 50 mg ALAs with 79 mL alcohol.
The mark [9] stands for this setting: phosphate salt, 50 mg ALAs with 108 mL alcohol.
Setting [10] is: phosphate salt, 100 mg ALAs with 50 mL alcohol.
The mark [11] stands for this setting: phosphate salt, 100 mg ALAs with 75 mL alcohol.
[12] abbreviates: phosphate salt, 100 mg ALAs with 190 mL alcohol.
The mark [13] stands for this setting: phosphate salt, 150 mg ALAs with 129 mL alcohol.

As to `NCC(=O)CCC(=O)O` [aminolevulinic acid, 5-aminolevulinic acid], in experiment [1], the “time after administration until hangover symptoms started to recover” value worked out at 30 min and the “time until complete recovery from hangover” value is 1.5 h.
In the case of “aminolevulinic acid phosphate salt [ALAs]”, the “Total score After alcohol consumption (same day)” value in experiment [2] (setting [3]) is 9; in experiment [2] (setting [4]), 1; in experiment [2] (setting [5]) it was 0; in experiment [2] (setting [6]), 0 (2×) and 3; in experiment [2] (setting [7]) it was 0; in experiment [2] (setting [8]), 0. The “Total score After alcohol consumption (same day)” value is reported as 0 in experiment [2] (setting [9]); 1 in experiment [2] (setting [10]); 0 in experiment [2] (setting [11]); 9 in experiment [2] (setting [12]); 0 in experiment [2] (setting [13]). The “Total score Morning after alcohol consumption” value in experiment [2] (setting [3]) is 2; in experiment [2] (setting [4]), 1; in experiment [2] (setting [5]), 0; in experiment [2] (setting [6]), 0 (2×) and 3; in experiment [2] (setting [7]), 0; in experiment [2] (setting [8]), 0. In addition, the “Total score Morning after alcohol consumption” value in experiment [2] (setting [9]) was 0; in experiment [2] (setting [10]), 1; in experiment [2] (setting [11]), 1 and 0 and 2; in experiment [2] (setting [12]), 7; in experiment [2] (setting [13]) it was 1. In addition, the “amount of alcohol consumption possible” value in experiment [2] (ALAs ingested at the start of alcohol consumption, test subjects 1 and 2) is recorded as “Alcohol consumption at an amount more than usual was possible”. Also, the “hangover symptoms with ALAs ingestion compared to without, conclusions from Table 5” value in experiment [2] (subgroups of test subjects, phosphate salt) was “hangover symptoms were surprisingly mostly reduced; also recorded: Hangover symptoms were generally improved and a prophylactic effect of hangovers was seen; also recorded: no hangover symptoms manifested”.

(Values after patent publication US10022345B2, “Agent for preventing and/or treating veisalgia” (SBI Pharmaceuticals Co., Ltd., priority 2011, dated 2018).)
